Data on 4 molecules can be found in patent US20070299091A1, “Azaindole Carboxamides” (priority 2004, published 2007).

One data set addresses T1, D1-receptor (Sus scrofa, UniProt P50130).
T1 construct: native membrane homogenates, obtained from porcine striatum; from tissue; host or cells: porcine striatum
As to the kind of experiment: radioligand binding, D1 receptor, [3H]SCH 23390, porcine striatum membrane homogenates. As to conditions: porcine D1, [3H]SCH 23390; average of 2-6 experiments in triplicate. As to the method: (§1) The biological activities of the compounds according to the invention were determined in radioligand bonding investigations. All radioligand experiments were performed according to methods described by us (Hübner, H. et al. J. Med. Chem. 2000, 43, 756-762). For the measurement of the affinities to the receptors of the D2-family membrane homogenates of Chinese hamster ovary cells (CHO cells) were used, which stably express the human D2long-, the human D2short- (Hayes, G. et al. Mol. Endocrinol. 1992, 6, 920-926), the human D3- (Sokoloff, P. et al. Eur. J. Pharmacol. 1992, 225, 331-337) or the human D4.4-receptor sub-type, (Asghari, V. J. Neurochem. 1995, 65,1157-1165) respectively. Basically the binding assays took place by incubation of the receptor homogenates with the radioligand [^3H]spiperone and the compounds under investigation in various concentrations. Determination of the affinities to the D1-receptor took place with native membrane homogenates, obtained from porcine striatum, and the D1-selective radioligands [^3H]SCH 23390.

The target in the next data set is T2, human D2long (Homo sapiens, UniProt P14416).
T2 construct: expressed in transfected cells
As to the kind of experiment: radioligand binding, [3H]spiperone, CHO cell membrane homogenates expressing human D2long. The following applies: for Ki: human D2long, [3H]spiperon, average of 2-6 experiments in triplicate; for D3-selectivity D2long/D3: ratio of Ki values D2long/D3. The method, then:
(§2) The biological activities of the compounds according to the invention were determined in radioligand bonding investigations. […] Mol. […] Neurochem. […] Basically the binding assays took place by incubation of the receptor homogenates with the radioligand [^3H]spiperone and the compounds under investigation in various concentrations.

For another data set, the target named is T3, human D2short (Homo sapiens, UniProt P14416).
T3 construct: expressed in transfected cells
As to the kind of experiment: radioligand binding, [3H]spiperone, CHO cell membrane homogenates expressing human D2short. The following applies: for Ki: human D2short, [3H]spiperon, average of 2-6 experiments in triplicate; for D3-selectivity D2short/D3: ratio of Ki values D2short/D3. The method, then: as §2

Another data set addresses T4, human D3 (Homo sapiens, UniProt P35462).
T4 construct: expressed in transfected cells
As to the kind of experiment: radioligand binding, [3H]spiperone, CHO cell membrane homogenates expressing human D3. As to conditions: human D3, [3H]spiperon; average of 2-6 experiments in triplicate. The method, then: as §1

The next data set concerns the target T5, human D4.4-receptor (Homo sapiens, UniProt P21917).
T5 construct: expressed in transfected cells
T5 sequence (P21917 1-419): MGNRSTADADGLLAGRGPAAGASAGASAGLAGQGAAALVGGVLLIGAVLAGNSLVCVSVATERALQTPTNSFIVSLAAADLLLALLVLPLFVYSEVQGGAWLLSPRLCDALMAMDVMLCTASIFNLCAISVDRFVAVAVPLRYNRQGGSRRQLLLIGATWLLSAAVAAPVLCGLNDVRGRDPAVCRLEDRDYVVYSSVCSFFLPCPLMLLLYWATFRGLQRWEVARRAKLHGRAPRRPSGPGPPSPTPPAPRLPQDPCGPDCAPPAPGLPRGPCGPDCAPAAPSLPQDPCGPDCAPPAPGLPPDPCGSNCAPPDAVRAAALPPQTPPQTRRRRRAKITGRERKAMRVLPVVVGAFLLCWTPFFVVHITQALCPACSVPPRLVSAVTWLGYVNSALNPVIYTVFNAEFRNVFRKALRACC
As to the kind of experiment: radioligand binding, [3H]spiperone, CHO cell membrane homogenates expressing human D4.4. The following applies: for Ki: human D4.4, [3H]spiperon, average of 2-6 experiments in triplicate; for D3-selectivity D4.4/D3: ratio of Ki values D4.4/D3. As to the method: as §2

The next data set has as its target T6, dopamine-D3-receptor (Homo sapiens, UniProt P35462).
T6 construct: expressed in transfected cells
As to the kind of experiment: mitogenesis assay, [3H]thymidine incorporation in D3 receptor-expressing cells. It counts as cell-based. As to conditions: for EC50: dose-effect curve from average values of all individual trials, seven concentrations in quadruplicate; for classification of intrinsic activity at the D3-receptor: mitogenesis assay, compared with full agonist quinpirol; for agonistic activity: with reference to the maximum effect of the full agonist Quinpirol. The method, then: Here various concentrations of the compound under investigation were incubated with D3 receptor-expressing cells and then the receptor-mediated stimulation of the mitogenesis rate was measured by incorporation of the radioactive marker [^3H]thymidine.

The target of data set [1] is T7, 5-HT1A (Sus scrofa, UniProt A0A4X1UTF5).
T7 construct: we incubated porcine cortex-membrane preparations with the radioligands; from tissue; host or cells: porcine cortex
T7 sequence (A0A4X1UTF5 1-422): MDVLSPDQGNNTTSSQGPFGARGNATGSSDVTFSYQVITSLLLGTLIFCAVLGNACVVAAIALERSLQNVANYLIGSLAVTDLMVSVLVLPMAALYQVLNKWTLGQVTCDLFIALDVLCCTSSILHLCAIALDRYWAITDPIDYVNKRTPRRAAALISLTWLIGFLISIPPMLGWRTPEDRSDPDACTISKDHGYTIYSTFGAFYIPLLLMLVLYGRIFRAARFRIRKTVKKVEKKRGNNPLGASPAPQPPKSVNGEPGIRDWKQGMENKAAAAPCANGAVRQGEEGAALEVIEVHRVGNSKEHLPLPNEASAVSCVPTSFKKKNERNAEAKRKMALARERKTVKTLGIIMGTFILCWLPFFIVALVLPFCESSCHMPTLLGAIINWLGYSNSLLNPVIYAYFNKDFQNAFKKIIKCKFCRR
As to the kind of experiment: radioligand binding, [3H]8-OH-DPAT, porcine cortex-membrane preparations. As to conditions: porcine 5-HT1A, [3H]8-OH-DPAT; average of 2 experiments in triplicate. As to the method:
(§3) Measurement of the bonding strengths of the compounds to the serotonin-receptor subtypes 5-HT1A and 5-HT2 was carried out according to methods described by us (Heindl, C. et al. Tetrahedron: Asymmetry 2003, 14, 3141-3152). For this we incubated porcine cortex-membrane preparations with the radioligands [^3H]8-OH-DPAT (for 5-HT1A) or [^3H]ketanserin (5-HT2) and the compounds in various concentrations. In the same way the affinity of the test compounds to the porcine α1-receptor was investigated, wherein porcine cortex-membrane preparations and the α1-selective radioligand [^3H]prazosin were used.

For data set [2], the system named is 5-HT1A. The data set is described as above. As to conditions: ratio of Ki values 5-HT1A/D3. As to the method: as §3
The target of the next data set is 5-HT2 (Sus scrofa, UniProt P50129). As to the kind of experiment: radioligand binding, [3H]ketanserin, porcine cortex-membrane preparations. As to conditions: for Ki: porcine 5-HT2, [3H]ketanserin, average of 2 experiments in triplicate; for D3-selectivity 5-HT2/D3: ratio of Ki values 5-HT2/D3. The method, then:
as §3

For data set [3], the system named is porcine α1-receptor. As to the kind of experiment: radioligand binding, [3H]prazosin, porcine cortex-membrane preparations. As to conditions: ratio of Ki values α1/D3. The method, then:
as §3

The target in data set [4] is T8, porcine α1-receptor.
T8 construct: Ki-values α1; other: porcine α1, [3H]prazosin; average of 2 experiments in triplicate
The description is as above. As to conditions: porcine α1, [3H]prazosin; average of 2 experiments in triplicate. As to the method: as §3

T3 sequence (P14416 1-414 isoform P14416-2): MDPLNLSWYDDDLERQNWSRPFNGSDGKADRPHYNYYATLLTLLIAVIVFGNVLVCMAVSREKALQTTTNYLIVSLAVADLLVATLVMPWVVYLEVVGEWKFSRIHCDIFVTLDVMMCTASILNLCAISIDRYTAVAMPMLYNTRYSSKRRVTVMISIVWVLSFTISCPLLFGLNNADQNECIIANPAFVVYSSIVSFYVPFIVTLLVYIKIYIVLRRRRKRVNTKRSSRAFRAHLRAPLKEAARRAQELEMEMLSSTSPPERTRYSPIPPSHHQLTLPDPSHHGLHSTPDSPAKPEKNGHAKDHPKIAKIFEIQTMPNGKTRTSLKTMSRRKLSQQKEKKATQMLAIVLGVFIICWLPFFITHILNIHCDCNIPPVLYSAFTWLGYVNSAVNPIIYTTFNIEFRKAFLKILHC
T2 sequence (P14416 whole entry): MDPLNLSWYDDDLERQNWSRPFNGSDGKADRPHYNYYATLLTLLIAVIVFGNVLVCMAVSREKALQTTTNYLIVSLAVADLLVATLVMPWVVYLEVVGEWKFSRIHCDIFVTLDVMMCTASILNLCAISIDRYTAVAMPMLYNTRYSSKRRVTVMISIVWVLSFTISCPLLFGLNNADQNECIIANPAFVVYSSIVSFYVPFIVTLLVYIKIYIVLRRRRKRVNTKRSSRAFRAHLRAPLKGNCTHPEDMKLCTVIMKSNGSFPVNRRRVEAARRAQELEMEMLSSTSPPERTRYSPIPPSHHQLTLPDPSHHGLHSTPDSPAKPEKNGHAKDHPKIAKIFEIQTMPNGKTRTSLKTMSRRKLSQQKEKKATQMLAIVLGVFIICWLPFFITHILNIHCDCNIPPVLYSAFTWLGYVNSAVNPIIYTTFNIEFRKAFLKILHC
Chain of 5-HT2 (P50129 whole entry): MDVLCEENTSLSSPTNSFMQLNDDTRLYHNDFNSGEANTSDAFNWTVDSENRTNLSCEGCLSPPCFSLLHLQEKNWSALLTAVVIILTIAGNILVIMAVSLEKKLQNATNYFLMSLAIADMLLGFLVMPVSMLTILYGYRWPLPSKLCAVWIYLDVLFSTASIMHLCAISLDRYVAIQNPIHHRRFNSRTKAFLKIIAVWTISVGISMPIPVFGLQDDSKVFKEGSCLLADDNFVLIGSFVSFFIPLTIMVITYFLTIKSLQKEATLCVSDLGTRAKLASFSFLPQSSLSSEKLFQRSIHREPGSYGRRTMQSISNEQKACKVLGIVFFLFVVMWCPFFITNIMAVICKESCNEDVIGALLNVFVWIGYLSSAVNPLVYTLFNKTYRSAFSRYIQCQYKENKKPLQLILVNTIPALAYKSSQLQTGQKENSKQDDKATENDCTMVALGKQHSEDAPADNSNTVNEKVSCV
T1 sequence (P50130 whole entry): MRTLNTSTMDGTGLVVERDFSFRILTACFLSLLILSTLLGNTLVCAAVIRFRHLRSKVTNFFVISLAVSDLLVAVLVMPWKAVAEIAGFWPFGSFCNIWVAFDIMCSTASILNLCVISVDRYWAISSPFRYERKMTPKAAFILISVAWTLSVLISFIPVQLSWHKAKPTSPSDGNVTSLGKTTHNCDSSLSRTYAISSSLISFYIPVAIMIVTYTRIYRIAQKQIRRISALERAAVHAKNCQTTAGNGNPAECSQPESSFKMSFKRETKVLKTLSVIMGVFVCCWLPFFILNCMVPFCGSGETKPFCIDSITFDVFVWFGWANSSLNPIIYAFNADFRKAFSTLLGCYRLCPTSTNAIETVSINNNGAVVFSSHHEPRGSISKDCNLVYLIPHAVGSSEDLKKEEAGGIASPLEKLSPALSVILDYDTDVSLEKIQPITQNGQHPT
T6 sequence (P35462 whole entry): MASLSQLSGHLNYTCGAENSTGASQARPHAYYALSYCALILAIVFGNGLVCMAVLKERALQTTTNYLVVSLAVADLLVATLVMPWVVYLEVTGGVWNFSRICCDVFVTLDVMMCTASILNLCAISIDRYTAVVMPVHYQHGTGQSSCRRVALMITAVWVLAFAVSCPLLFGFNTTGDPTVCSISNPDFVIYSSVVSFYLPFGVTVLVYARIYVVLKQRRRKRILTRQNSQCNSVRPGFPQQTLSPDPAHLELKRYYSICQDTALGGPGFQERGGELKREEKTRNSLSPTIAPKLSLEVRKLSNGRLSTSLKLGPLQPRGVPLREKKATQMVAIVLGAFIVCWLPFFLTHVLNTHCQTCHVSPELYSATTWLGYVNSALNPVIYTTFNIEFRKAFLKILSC
T4 sequence (P35462 whole entry): as above

As for `O=C(NCCCCN1CCN(c2cccc(Cl)c2Cl)CC1)c1cc2cccnc2[nH]1` [Example 3, N-(4-(4-(2,3-dichlorophenyl)piperazin-1-yl)butyl)-1H-pyrrolo[2,3-b]pyridin-2-ylcarbamide], the melting point was found to be 232 °C. The molecule further registered a Ki at D1-receptor of 440 nM. In addition, at human D2long, the Ki worked out at 19 nM and the “D3-selectivity D2long/D3” value was 150. In addition, at human D2short, the Ki was 6.5 nM and the “D3-selectivity D2short/D3” value worked out at 34. The molecule further registered a Ki on human D3 of 0.13 nM. At human D4.4-receptor, the Ki was 42 nM and the “D3-selectivity D4.4/D3” value is reported as 320. Besides, at dopamine-D3-receptor, a half-maximal response (EC50) required 1.3 nM, the “classification of intrinsic activity at the D3-receptor” value (“classification of intrinsic activity” below) was “partial agonist” and the agonistic activity was found to be 41%. The molecule further had a Ki at 5-HT1A [1] of 24 nM. Also, the “D3-selectivity 5-HT1A/D3” value in the data set on 5-HT1A [2] was determined as 180. Moreover, on 5-HT2, the Ki came out at 63 nM and the “D3-selectivity 5-HT2/D3” value is recorded as 480. Moreover, the “D3-selectivity α1/D3” value with porcine α1-receptor [3] is 28. At porcine α1-receptor [4], the Ki was 3.6 nM.
Consider `COc1ccccc1N1CCN(CCCCNC(=O)c2cc3cccnc3[nH]2)CC1` [Example 1, N-(4-(4-(2-methoxyphenyl)piperazin-1-yl)butyl)-1H-pyrrolo[2,3-b]pyridin-2-ylcarbamide], for which the melting point came out at 117 °C. At D1-receptor, this molecule displayed a Ki of 1500 nM. Besides, on human D2long, the Ki is 58 nM and the “D3-selectivity D2long/D3” value turned out to be 71. On human D2short, the Ki was 42 nM and the “D3-selectivity D2short/D3” value came out at 51. At human D3, this molecule displayed an inhibition constant Ki of 0.82 nM. Also, at human D4.4-receptor, affinity was put at a Ki of 32 nM and the “D3-selectivity D4.4/D3” value turned out to be 39. On dopamine-D3-receptor, the EC50 is 0.96 nM, the “classification of intrinsic activity” value is “weakly partially agonistic” and the agonistic activity was 14%. Besides, the affinity at 5-HT1A [1], expressed as Ki, was 23 nM. Besides, the “D3-selectivity 5-HT1A/D3” value in the data set on 5-HT1A [2] is on record as 28. For the same molecule, the Ki on 5-HT2 came out at 340 nM. The “D3-selectivity α1/D3” value in the data set with porcine α1-receptor [3] came to 1.6. Moreover, affinity on porcine α1-receptor [4] was put at a Ki of 1.3 nM.
In turn, `O=C(NCCCCN1CCN(c2cccc(Cl)c2Cl)CC1)c1cc2cccnc2n1S(=O)(=O)c1ccccc1` [Example 4, N-(4-(4-(2,3-dichlorophenyl)piperazin-1-yl)butyl)-1-phenylsulfonyl-1H-pyrrolo[2,3-b]pyridin-2-ylcarbamide] registered a melting point of 82 °C. For the same molecule, the inhibition constant Ki on D1-receptor was 680 nM. On human D2long, the affinity, expressed as Ki, was 68 nM and the “D3-selectivity D2long/D3” value worked out at 85. On human D2short, the Ki amounted to 39 nM and the “D3-selectivity D2short/D3” value stood at 49. The molecule also gave a Ki at human D3 of 0.8 nM. In addition, on human D4.4-receptor, affinity was put at a Ki of 110 nM and the “D3-selectivity D4.4/D3” value came out at 140. Further, on dopamine-D3-receptor, the response was half-maximal at 2.1 nM (EC50), the “classification of intrinsic activity” value is given as “weakly partially agonistic” and the agonistic activity is reported as 16%. Further, the affinity at 5-HT1A [1] corresponds to a Ki of 16 nM. For the same molecule, the “D3-selectivity 5-HT1A/D3” value with 5-HT1A [2] turned out to be 20. Moreover, on 5-HT2, the Ki was determined as 200 nM and the “D3-selectivity 5-HT2/D3” value amounted to 250. Further, the “D3-selectivity α1/D3” value with porcine α1-receptor [3] is reported as 26. The Ki on porcine α1-receptor [4] is 21 nM.
Regarding `COc1ccccc1N1CCN(CCCCNC(=O)c2cc3cccnc3n2S(=O)(=O)c2ccccc2)CC1` [Example 2, N-(4-(4-(2-methoxyphenyl)piperazin-1-yl)butyl)-1-phenylsulfonyl-1H-pyrrolo[2,3-b]pyridin-2-ylcarbamide], the melting point came out at 166 °C. The affinity on D1-receptor, expressed as Ki, was 1300 nM. On human D2long, the Ki came out at 180 nM and the “D3-selectivity D2long/D3” value was 19. Further, on human D2short, the Ki was determined as 110 nM and the “D3-selectivity D2short/D3” value was 12. At human D3, the Ki was determined as 9.3 nM. At human D4.4-receptor, the Ki stood at 130 nM and the “D3-selectivity D4.4/D3” value was 14. On dopamine-D3-receptor, a half-maximal response (EC50) required 7.9 nM, the “classification of intrinsic activity” value is listed as “weakly partially agonistic” and the agonistic activity is listed as 12%. Moreover, the affinity on 5-HT1A [1], expressed as Ki, was 14 nM. Besides, the “D3-selectivity 5-HT1A/D3” value with 5-HT1A [2] came to 1.5. Also, on 5-HT2, the Ki stood at 1100 nM and the “D3-selectivity 5-HT2/D3” value was 120. For the same molecule, the “D3-selectivity α1/D3” value with porcine α1-receptor [3] is reported as 0.49. Also, the affinity on porcine α1-receptor [4] corresponds to a Ki of 4.6 nM.
